According to paper PMC8034821 (The Journal of Venomous Animals and Toxins Including …, 2021):

System: krait (Bungarus sindanus) venom acetylcholinesterase (AChE)
Experiment: Ellman (DTNB) assay, Lineweaver-Burk plot
Type: biochemical
Conditions: no inhibitor; 50 mM phosphate pH 7.4; 25 or 37 °C (both printed); crude venom

CC(=O)SCC[N+](C)(C)C [AcSCh]
Km: 74.1 µM
